The values below come from patent publication US9561228B2 (Celgene Avilomics Research, Inc., priority 2013, dated 2017).

Bounds are passed on as bounds.

The IC50 is the midpoint of a concentration-inhibition curve.

In one assay the target is T1, MEK1 activated ERK1 (Homo sapiens, UniProt P27361).
T1 construct: purchased Millipore (Billerica, Mass.) 14-439-K
As to the kind of experiment: Omnia continuous-read kinase assay for potency against MEK1 activated ERK1. The assay is classed as biochemical. The conditions noted are these: MEK1 activated ERK1, ATP at KM; read-out: ERK1 Omnia WT ATP KM IC50. The source says:
Omnia Assay Protocol for Potency Assessment Against MEK1 Activated ERK1:
The protocol below describes continuous-read kinase assays to measure potency of compounds against activated ERK1 enzyme. The mechanics of the assay platform are best described by the vendor (Invitrogen, Carlsbad, Calif.) on their website at the following URL: invitrogen.com/site/us/en/home.html.
Briefly, a 1.25× stock of ERK1 enzyme (14-439-K) from Millipore (Billerica, Mass.), 5×ATP (AS001A) and ST17-Sox conjugated peptide substrate (KNZ1171C) were prepared in 1× kinase reaction buffer consisting of 20 mM Tris, pH 7.5, 5 mM MgCl2, 1 mM EGTA, 5 mM β-glycerophosphate, 5% glycerol (10× stock, KB002A) and 0.2 mM DTT. 10 μL of ATP/ST17-sox peptide substrate mix was combined with 0.5 μL volume of 100% DMSO and serially diluted compounds were prepared in 100% DMSO in a Corning (#3574) 384-well, white, non-binding surface microtiter plate (Corning, N.Y.). Kinase reactions were started with the addition of 40 μL of ERK1 solution and monitored every 71 seconds for 30-240 minutes at λex360/λem485 in a Synergy plate reader from BioTek (Winooski, Vt.). At the conclusion of each assay, progress curves from each well were examined for linear reaction kinetics and fit statistics (R^2, 95% confidence interval, absolute sum of squares). Initial velocity (0 minutes to ˜30+ minutes) from each reaction was determined from the slope of a plot of relative fluorescence units vs time (minutes or seconds) and then plotted against inhibitor concentration to estimate ^AppIC50 from log [Inhibitor] vs Response, Variable Slope model in GraphPad Prism from GraphPad Software (San Diego, Calif.).
[Reagent] used in optimized protocol:
[ERK1]=4 nM, [ATP]=50 μM, [ST17-Sox]=10 μM (ATP ^appKM 48 μM)
The results of this assay show the degree of inhibition of ERK activity, which is a direct measurement of inhibition of ERK activity. Results from this assay are reported in Table A under the column “ERK1 Omnia WT ATP KM IC50 (nM).”

Assay [1] concerns ERK1/2 phosphorylation of p90RSK in HT29 cells. As to the kind of experiment: pRSK MSD Assay in HT29 cells. The class given is cell-based. As to conditions: Homo sapiens, HT-29, read-out: ERK1/ERK2 PRSK MSD HT29 EC50. The protocol: The protocol below describes an assay to measure the kinase activity of ERK1/2 to phosphorylate a substrate, p90RSK, in the presence or absence of a test compound. This experiment was conducted using a Mesoscale Discovery plate. The day before the assay, HT29 cells were split and plated at 50,000 cells/well in complete growth media. After allowing cells to adhere, the media was removed and replaced with media containing 0.1% FBS and incubated overnight. Blank MSD plates (Mesoscale Discovery, Cat # L15XA3) were coated with 25 μl/well RSK capture antibody (BD Biosciences, Cat. #610226) and incubated at 4° C. overnight, then blocked with 150 μl of 3% BSA solution. The next day, the media from the cell culture plate was removed and replaced with 100 μl of media containing a test compound and incubated for 120 minutes at 37° C. The media was removed and replaced with 55 μl per well of lysis buffer with protease inhibitors (Roche Biosciences, Cat. #11836170001) and phosphatase inhibitors (Sigma-Aldrich, Cat. # P-0044 and P-5726), followed by incubation at 4° C. for 30 minutes. 50 μl of lysate was transferred to a blocked MSD plate, followed by incubation at room temperature for 2 hours under constant shaking. The plate was washed 3 times with MSD wash buffer (Mesoscale Discovery, Cat. # R617TX), and 25 μl/well phospho-RSK (pRSK) detection antibody (Cell Signaling Technology, Cat. #9335) was added with Sulfo-tagged detection antibody (Mesoscale Discovery, Cat. # R32AB-1) diluted in 1% BSA in MSD wash buffer. This mixture was incubated for 1 hour at room temperature under constant shaking. The plate was washed 3 times, and 150 μl 1×MSD read buffer was added, followed by signal detection in an MSD plate reader.

T1 sequence (P27361 whole entry): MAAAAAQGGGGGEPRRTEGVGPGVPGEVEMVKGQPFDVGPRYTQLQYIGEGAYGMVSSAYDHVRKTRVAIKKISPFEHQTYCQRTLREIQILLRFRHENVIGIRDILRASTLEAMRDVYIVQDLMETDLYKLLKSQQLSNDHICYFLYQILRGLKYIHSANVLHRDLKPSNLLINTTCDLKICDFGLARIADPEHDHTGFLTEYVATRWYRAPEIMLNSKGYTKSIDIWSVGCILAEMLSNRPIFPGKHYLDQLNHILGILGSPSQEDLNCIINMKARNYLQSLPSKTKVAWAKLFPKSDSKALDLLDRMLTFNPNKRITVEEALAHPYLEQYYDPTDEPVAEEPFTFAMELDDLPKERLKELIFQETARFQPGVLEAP

Take `C=CC(=O)Nc1ccc(C)cc1Nc1nc(NC2CCC(=O)CC2)ncc1C(F)(F)F` [Compound I-39, N-(4-Methyl-2-((2-((4-oxocyclohexyl)amino)-5-(trifluoromethyl)pyrimidin-4-yl)amino)phenyl)acrylamide]: the IC50 at MEK1 activated ERK1 lay within 101 to 500 nM. Besides, the EC50 in assay [1] lay in the range of 501 to 999 nM.

With `C=CC(=O)Nc1ccccc1Nc1nc(Nc2cncc(C(N)=O)c2)ncc1C(F)(F)F` [Compound I-63, 5-((4-((2-Acrylamidophenyl)amino)-5-(trifluoromethyl)pyrimidin-2-yl)amino)nicotinamide], at MEK1 activated ERK1, the IC50 was 101 to 500 nM. Further, the EC50 in assay [1] is over 1000 nM.

Regarding `C=CC(=O)Nc1ccccc1Nc1nc(Nc2cc(C(=O)NOC)ccc2OC)ncc1C(F)(F)F` [Compound I-67, 3-((4-((2-Acrylamidophenyl)amino)-5-(trifluoromethyl)pyrimidin-2-yl)amino)-N,4-dimethoxybenzamide], the IC50 at MEK1 activated ERK1 lay in the range of 101 to 500 nM. Moreover, the EC50 in assay [1] was in the range of 501 to 999 nM.

For the compound `C=CC(=O)Nc1ccccc1Nc1nc(Nc2cc(C(=O)NOCCO)ccc2C#N)ncc1C(F)(F)F` [Compound I-75, 3-((4-((2-Acrylamidophenyl)amino)-5-(trifluoromethyl)pyrimidin-2-yl)amino)-4-cyano-N-(2-hydroxyethoxyl)benzamide], the IC50 on MEK1 activated ERK1 is 101 to 500 nM. For the same compound, the EC50 in assay [1] is over 1000 nM.

In the case of `C=CC(=O)Nc1ccccc1Nc1nc(NC(C)(C)C)ncc1C(F)(F)F` [Compound I-82, N-(2-((2-(tert-Butylamino)-5-(trifluoromethyl)pyrimidin-4-yl)amino)phenyl)acrylamide], the IC50 on MEK1 activated ERK1 was 501 to 999 nM. The EC50 in assay [1] is over 1000 nM.

In the case of `C=CC(=O)Nc1ccccc1Nc1nc(Nc2cc(C(N)=O)ccn2)ncc1C(F)(F)F` [Compound I-83, 2-((4-((2-Acrylamidophenyl)amino)-5-(trifluoromethyl)pyrimidin-2-yl)amino)isonicotinamide], at MEK1 activated ERK1, the concentration for half-maximal inhibition (IC50) lay in the range of 101 to 500 nM. Besides, in assay [1], the EC50 was 101 to 500 nM.

As for `C=C(C)S(=O)(=O)Nc1cc(F)ccc1Nc1nc(Nc2cc(C(N)=O)ccc2C)ncc1C(F)(F)F` [Compound I-87, 3-((4-((4-Fluoro-2-(1-methylvinylsulfonamido)phenyl)amino)-5-(trifluoromethyl)pyrimidin-2-yl)amino)-4-methylbenzamide], on MEK1 activated ERK1, the concentration for half-maximal inhibition (IC50) is 101 to 500 nM. The EC50 in assay [1] is over 1000 nM.

In the case of `C=C(C)S(=O)(=O)Nc1cc(F)ccc1Nc1nc(Nc2cc(C(C)=O)ccc2C)ncc1C(F)(F)F` [Compound I-99, N-(2-((2-((5-acetyl-2-methylphenyl)amino)-5-(trifluoromethyl)pyrimidin-4-yl)amino)-5-fluorophenyl)prop-1-ene-2-sulfonamide], the IC50 on MEK1 activated ERK1 was in the range of 501 to 999 nM. Besides, in assay [1], the EC50 is over 1000 nM.

Take `C=CC(=O)Nc1ccccc1Nc1nc(NC2CCCCC2)ncc1Cl` [Compound I-107, N-(2-((5-chloro-2-(cyclohexylamino)pyrimidin-4-yl)amino)phenyl)acrylamide]: the IC50 on MEK1 activated ERK1 lay within 101 to 500 nM. For the same compound, the EC50 in assay [1] was in the range of 101 to 500 nM.

For `C=CC(=O)Nc1ccccc1Nc1nc(N[C@H]2CCCN(C(=O)C(C)(C)O)C2)ncc1Cl` [Compound I-135, (S)—N-(2-((5-chloro-2-((1-(2-hydroxy-2-methylpropanoyl)piperidin-3-yl)amino)pyrimidin-4-yl)amino)phenyl)acrylamide], the half-inhibitory concentration (IC50) on MEK1 activated ERK1 fell in the range of 101 to 500 nM. Moreover, the EC50 in assay [1] was over 1000 nM.

In the case of `C=CC(=O)Nc1ccccc1Nc1nc(N[C@H]2CCCN(C(=O)[C@H](C)O)C2)ncc1Cl` [Compound I-138, N-(2-((5-chloro-2-(((S)-1-((S)-2-hydroxypropanoyl)piperidin-3-yl)amino)pyrimidin-4-yl)amino)phenyl)acrylamide], on MEK1 activated ERK1, the concentration for half-maximal inhibition (IC50) is 501 to 999 nM. Also, the EC50 in assay [1] was over 1000 nM.

As to `C=CC(=O)Nc1ccccc1Nc1nc(Nc2cc(C(=O)NOC)ccc2OC)ncc1Cl` [Compound I-187, 3-((4-((2-acrylamidophenyl)amino)-5-chloropyrimidin-2-yl)amino)-N,4-dimethoxybenzamide], the half-inhibitory concentration (IC50) at MEK1 activated ERK1 is 101 to 500 nM. For the same compound, the EC50 in assay [1] was in the range of 101 to 500 nM.

For the compound `C=CC(=O)Nc1ccccc1Nc1nc(Nc2cc(C(=O)NOCCO)ccc2OC)ncc1Cl` [Compound I-194, 3-((4-((2-acrylamidophenyl)amino)-5-chloropyrimidin-2-yl)amino)-N-(2-hydroxyethoxy)-4-methoxybenzamide], the IC50 on MEK1 activated ERK1 fell in the range of 101 to 500 nM. In assay [1], the EC50 is 501 to 999 nM.

In the case of `C=CC(=O)Nc1ccccc1Nc1nc(Nc2cc(C(=O)NOC)ccc2C#N)ncc1Cl` [Compound I-195, 3-((4-((2-acrylamidophenyl)amino)-5-chloropyrimidin-2-yl)amino)-4-cyano-N-methoxybenzamide], the IC50 on MEK1 activated ERK1 lay within 101 to 500 nM. The EC50 in assay [1] was over 1000 nM.

On to `C=CC(=O)N(C)c1ccccc1Nc1nc(Nc2cc(C(N)=O)ccc2C#N)ncc1Cl` [Compound I-196, 3-((5-chloro-4-((2-(N-methylacrylamido)phenyl)amino)pyrimidin-2-yl)amino)-4-cyanobenzamide], for which the IC50 at MEK1 activated ERK1 lay in the range of 501 to 999 nM. In addition, in assay [1], the EC50 was over 1000 nM.

As to `C=CC(=O)Nc1ccccc1Nc1nc(Nc2cc(C(=O)NOCCO)ccc2C)ncc1Cl` [Compound I-198, 3-((4-((2-acrylamidophenyl)amino)-5-chloropyrimidin-2-yl)amino)-N-(2-hydroxyethoxy)-4-methylbenzamide], the IC50 on MEK1 activated ERK1 lay in the range of 101 to 500 nM. Further, in assay [1], the EC50 fell in the range of 101 to 500 nM.

As for `C=CC(=O)Nc1cc(F)ccc1Nc1nc(Nc2cc(C(N)=O)ccc2C#N)ncc1Cl` [Compound I-207, 3-(4-(2-acrylamido-4-fluorophenylamino)-5-chloropyrimidin-2-ylamino)-4-cyanobenzamide], on MEK1 activated ERK1, the IC50 was 101 to 500 nM. Also, the EC50 in assay [1] was over 1000 nM.

As for `C=CC(=O)Nc1ccccc1Nc1nc(Nc2ccc(F)cc2OC)ncc1Cl` [Compound I-210, N-(2-((5-chloro-2-((4-fluoro-2-methoxyphenyl)amino)pyrimidin-4-yl)amino)phenyl)acrylamide], on MEK1 activated ERK1, the IC50 lay within 101 to 500 nM. The EC50 in assay [1] was in the range of 101 to 500 nM.

As to `C=CC(=O)Nc1cc(F)ccc1Nc1nc(Nc2ccc(F)cc2OC)ncc1Cl` [Compound I-213, N-(2-((5-chloro-2-((4-fluoro-2-methoxyphenyl)amino)pyrimidin-4-yl)amino)-5-fluorophenyl)acrylamide], the concentration for half-maximal inhibition (IC50) on MEK1 activated ERK1 was in the range of 101 to 500 nM. In addition, the EC50 in assay [1] was 101 to 500 nM.

Turning to `C=CC(=O)Nc1ccccc1Nc1nc(Nc2cc(C(=O)O)ccc2C)ncc1Cl` [Compound I-225, 3-((4-((2-acrylamidophenyl)amino)-5-chloropyrimidin-2-yl)amino)-4-methylbenzoic acid], the half-inhibitory concentration (IC50) at MEK1 activated ERK1 lay in the range of 101 to 500 nM. Also, the EC50 in assay [1] is over 1000 nM.

For the compound `C#CC(=O)NCCCOc1cc(C)c(Nc2ncc(Cl)c(Nc3ccccc3NC(=O)C=C)n2)cc1C(N)=O` [Compound I-227, 5-((4-((2-acrylamidophenyl)amino)-5-chloropyrimidin-2-yl)amino)-4-methyl-2-(3-propiolamidopropoxy)benzamide], at MEK1 activated ERK1, the IC50 fell in the range of 101 to 500 nM. Moreover, the EC50 in assay [1] was over 1000 nM.

For `C=CC(=O)Nc1cc(C)ccc1Nc1nc(Nc2ccnc(Cl)c2)ncc1Cl` [Compound I-230, N-(2-((5-chloro-2-((2-chloropyridin-4-yl)amino)pyrimidin-4-yl)amino)-5-methylphenyl)acrylamide], the IC50 at MEK1 activated ERK1 lay in the range of 501 to 999 nM. The EC50 in assay [1] is 101 to 500 nM.
